Results on 7 compounds are retold here after ChEMBL document CHEMBL1127657, “Haloperidol-based irreversible inhibitors of the HIV-1 and HIV-2 proteases” (J Med Chem, 1994).

The target of experiment [1] is Human immunodeficiency virus type 1 protease (Human immunodeficiency virus 1, UniProt Q72874). In words: In vitro inhibition of recombinant HIV-1 protease expressed in Escherichia coli strain D1210.
The target in experiment [2] is T1, Human rhinovirus A protease (Human rhinovirus sp.) (UniProt Q4U254).
T1 sequence (whole entry): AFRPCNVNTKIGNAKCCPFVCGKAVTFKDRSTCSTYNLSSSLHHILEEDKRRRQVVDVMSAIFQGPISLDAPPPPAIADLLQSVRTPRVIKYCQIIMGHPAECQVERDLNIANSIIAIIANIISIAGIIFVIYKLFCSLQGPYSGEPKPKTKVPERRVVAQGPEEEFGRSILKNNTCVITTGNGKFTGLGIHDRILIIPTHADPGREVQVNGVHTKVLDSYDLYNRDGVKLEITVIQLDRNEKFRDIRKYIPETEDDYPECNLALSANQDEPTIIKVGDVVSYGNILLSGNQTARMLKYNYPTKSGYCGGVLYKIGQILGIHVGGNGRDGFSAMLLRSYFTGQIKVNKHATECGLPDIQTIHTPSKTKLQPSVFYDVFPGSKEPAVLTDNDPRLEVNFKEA
The settings on record: Human immunodeficiency virus 2.

Experiment [3] deals with Human immunodeficiency virus type 1 protease (Human immunodeficiency virus 1) (UniProt Q72874).
Description: The irreversibility of the inactivation reaction of HIV-1 PR was assessed

In the case of `O=C(C#CCN1CCC(O)(c2ccc(Cl)cc2)CC1)c1ccccc1`, in experiment [1], the IC50 (commonly the midpoint of a concentration-inhibition curve) amounted to 20 µM.

`O=C(C#CCN1CCC(O)(c2ccc(Cl)cc2)CC1)c1cccc(-c2ccccc2)c1`: the IC50 in experiment [1] amounted to 63 µM.

As to `O=C(/C=C/C[N+]1([O-])CCC(O)(c2ccc(Cl)cc2)CC1)c1ccc(F)cc1` (centres undefined), the IC50 in experiment [1] was 30 µM. Also, the figures for the K inact in experiment [2] and in experiment [3] were 4.33 min⁻¹ and 86 min⁻¹, respectively.

Regarding `O=C(C#CCN1CCC(O)(c2ccc(Cl)cc2)CC1)c1ccc(-c2ccccc2)cc1`, the IC50 in experiment [1] stood at 100 µM.

As to `OC1(c2ccc(Cl)cc2)CCN(CC#CC2(c3ccccc3)CO2)CC1` (centres undefined), in experiment [1], the IC50 was found to be 150 µM.

Regarding `O=C(/C=C/CN1CCC(O)(c2ccc(Cl)cc2)CC1)c1ccc(F)cc1`, the IC50 in experiment [1] is 80 µM.

In the case of `OC1(C#CC2(c3ccccc3)CO2)CCN(Cc2ccccc2)CC1` (centres undefined), the IC50 in experiment [1] stood at 725 µM.
